Data: patent publication USRE42890E1, “Furazanobenzimidazoles” (Basilea Pharmaceutica AG, priority 2003, dated 2011)

Experiments:
[1] = tested on: Jurkat; test: MTS proliferation assay, Jurkat; assay type: cell-based, human; conditions: 72 h incubation, read-out: MTS proliferation assay IC 50 Jurkat
How it was run: (§1)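 A 72 h exposure to compound (final 0.3–10 μM, four levels) was followed by 3 h MTS incubation and an A492 read.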

[2] = tested on: MRC5; test: MTS proliferation assay, MRC5; assay type: cell-based; conditions: MRC5, 72 h incubation; read-out: MTS proliferation assay IC 50 MRC5
How it was run: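 Proliferation is followed by MTS conversion, measured as absorbance at 492 nm. Cells are exposed for 72 h to four fixed compound concentrations (10 μM down to 0.3 μM) under 37° C, 7.5% CO2 culture conditions.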

[3] = tested on: adherent cells or suspension cells; test: Hoechst 33342 nuclear staining (fraction of apoptotic nuclei); assay type: cell-based; set-up: key: 0 relating to no activity; 1 relating to weak activity comprising less than 70% of the cells; score 2 relating to strong activity comprising more than 70% of the cells
[4] = tested on: HeLa; test: MTS proliferation assay, HeLa; assay type: cell-based, human; conditions: 72 h incubation, read-out: MTS proliferation assay IC 50 HeLa
How it was run: as §1

[5] = tested on: Jily; test: MTS proliferation assay, Jily; assay type: cell-based; conditions: 72 h incubation, read-out: MTS proliferation assay IC 50 Jily
Method: Cell lines are cultured in RPMI-1640 tissue culture medium containing either 5% or 10% fetal calf serum, 0.05 mM 2-mercaptoethanol, 2 mM glutamine and penicillin/streptomycin 50 μg/ml (complete medium) (Sigma, Buchs, Switzerland). General growth conditions are 37° C. and 7.5% CO2.
The assay is performed in 96 well tissue culture plates. The cells (range: 1.5*10^3-10^4) are seeded out in 80 μl complete medium 24 h prior to compound treatment. The test compounds are added in 20 μl complete medium containing max 5% DMSO. The final compound concentrations in the assays are 10 μM, 3 μM, 1 μM and 0.3 μM, respectively. The assay plates are incubated for 72 h at culture conditions. The MTS reagent is prepared according to the manufacturer's protocol (Promega G1111). 20 μl MTS reagent are added to each well, the assay plates are quickly spun and incubated for another 3 h at culture conditions. Subsequently, the plates are shortly shaked and absorption measured with a microplate-reader at 492 nm.

[6] = tested on: HT1080; test: MTS proliferation assay, HT1080; assay type: cell-based, human; conditions: HT1080, 72 h incubation; read-out: MTS proliferation assay IC 50 HT1080
How it was run: as §1

SMILES | IC50 [2] [nM] | Hoechst 33342 nuclear staining score ([3]; H460, conc 0.01 μm) | Hoechst 33342 nuclear staining score ([3]; H460, conc 0.1 μm) | Hoechst 33342 nuclear staining score ([3]; H460, conc 1 μm) | Hoechst 33342 nuclear staining score ([3]; HeLa, conc 0.01 μm) | Hoechst 33342 nuclear staining score ([3]; HeLa, conc 0.1 μm) | Hoechst 33342 nuclear staining score ([3]; HeLa, conc 1 μm) | Hoechst 33342 nuclear staining score ([3]; Jily, conc 0.01 μm) | Hoechst 33342 nuclear staining score ([3]; Jily, conc 0.1 μm) | Hoechst 33342 nuclear staining score ([3]; Jily, conc 1 μm) | Hoechst 33342 nuclear staining score ([3]; Jurkat, conc 0.01 μm) | Hoechst 33342 nuclear staining score ([3]; Jurkat, conc 0.1 μm) | Hoechst 33342 nuclear staining score ([3]; Jurkat, conc 1 μm) | Hoechst 33342 nuclear staining score ([3]; MRC5, conc 0.01 μm) | Hoechst 33342 nuclear staining score ([3]; MRC5, conc 0.1 μm) | Hoechst 33342 nuclear staining score ([3]; MRC5, conc 1 μm) | Hoechst 33342 nuclear staining score ([3]; PBLs, conc 0.01 μm) | Hoechst 33342 nuclear staining score ([3]; PBLs, conc 0.1 μm) | Hoechst 33342 nuclear staining score ([3]; PBLs, conc 1 μm) | IC50 [4] [nM] | other results
Nc1nonc1-c1nc2ccccc2n1CC(=O)c1ccc2c(c1)OCO2 [Example 45] | 100 to 1000 | 0 | 2 (score 2 relating to strong activity comprising more than 70% of the cells) | 2 (score 2 relating to strong activity comprising more than 70% of the cells) | 0 | 1 (1 relating to weak activity comprising less than 70% of the cells) | 2 (score 2 relating to strong activity comprising more than 70% of the cells) | 0 | 2 (score 2 relating to strong activity comprising more than 70% of the cells) | 2 (score 2 relating to strong activity comprising more than 70% of the cells) | 0 | 2 (score 2 relating to strong activity comprising more than 70% of the cells) | 2 (score 2 relating to strong activity comprising more than 70% of the cells) | 0 | 0 | 2 (score 2 relating to strong activity comprising more than 70% of the cells) | 0 | 0 | 0 | 10 to 100 | IC50 [1]: 10 to 100 nM; IC50 [5]: 10 to 100 nM; IC50 [6]: 10 to 100 nM
Nc1nonc1-c1nc2ccccc2n1CC(=O)c1ccc(Cl)nc1 [Example 70] | < 10 | 1 (1 relating to weak activity comprising less than 70% of the cells) | 2 (score 2 relating to strong activity comprising more than 70% of the cells) | 2 (score 2 relating to strong activity comprising more than 70% of the cells) | 0 | 2 (score 2 relating to strong activity comprising more than 70% of the cells) | 2 (score 2 relating to strong activity comprising more than 70% of the cells) | 2 (score 2 relating to strong activity comprising more than 70% of the cells) | 2 (score 2 relating to strong activity comprising more than 70% of the cells) | 2 (score 2 relating to strong activity comprising more than 70% of the cells) | 2 (score 2 relating to strong activity comprising more than 70% of the cells) | 2 (score 2 relating to strong activity comprising more than 70% of the cells) | 2 (score 2 relating to strong activity comprising more than 70% of the cells) | 1 (1 relating to weak activity comprising less than 70% of the cells) | 2 (score 2 relating to strong activity comprising more than 70% of the cells) | 2 (score 2 relating to strong activity comprising more than 70% of the cells) | 0 | 0 | 0 | < 10 | IC50 [1]: < 10 nM; IC50 [5]: < 10 nM; IC50 [6]: < 10 nM
Nc1ccc(OCn2c(-c3nonc3N)nc3ccccc32)cc1 [Example 99] | > 1000 | 0 | 0 | 0 | 0 | 0 | 0 | 0 | 0 | 1 (1 relating to weak activity comprising less than 70% of the cells) | 0 | 0 | 1 (1 relating to weak activity comprising less than 70% of the cells) | 0 | 0 | 0 | 0 | 0 | 0 | > 1000 | IC50 [1]: 100 to 1000 nM; IC50 [5]: 100 to 1000 nM; IC50 [6]: > 1000 nM
Nc1nonc1-c1nc2ccccc2n1COc1cc(C(F)(F)F)cc(C(F)(F)F)c1 [Example 102] | 100 to 1000 | 0 | 0 | 1 (1 relating to weak activity comprising less than 70% of the cells) | 0 | 0 | 0 | 0 | 0 | 1 (1 relating to weak activity comprising less than 70% of the cells) | 0 | 0 | 2 (score 2 relating to strong activity comprising more than 70% of the cells) | 0 | 0 | 0 | 0 | 0 | 0 | > 1000 | IC50 [5]: 100 to 1000 nM; IC50 [6]: > 1000 nM
Nc1nonc1-c1nc2ccccc2n1COc1cccc(C(F)(F)F)c1 [Example 103] | 100 to 1000 | 0 | 0 | 2 (score 2 relating to strong activity comprising more than 70% of the cells) | 0 | 0 | 2 (score 2 relating to strong activity comprising more than 70% of the cells) | 0 | 0 | 2 (score 2 relating to strong activity comprising more than 70% of the cells) | 0 | 1 (1 relating to weak activity comprising less than 70% of the cells) | 2 (score 2 relating to strong activity comprising more than 70% of the cells) | 0 | 0 | 1 (1 relating to weak activity comprising less than 70% of the cells) | 0 | 0 | 0 | 100 to 1000 | IC50 [5]: 10 to 100 nM; IC50 [6]: 100 to 1000 nM
